Laboratory results: EP4763845A1, “CYANO AROMATIC RING DERIVATIVE AND PHARMACEUTICAL USE THEREOF” (Haisco Pharmaceutical Group Co., Ltd., priority 2023, dated 2025)
Read-outs that look alike come from different tables or passages of the source.

How the values were obtained:
[1] = tested on: VCaP cells; assay: VCaP cell proliferation inhibition experiment (CellTiter-Glo); format: cell-based; conditions: Homo sapiens, 168 h
Experimental: After centrifugation and resuspension, viable cell counting was performed using a Vi-Cell XR cell counter. […] Then, 180 µl of the cell suspension was added per well to a 96-well cell culture plate at a cell density of 7,500 cells/well. At the time of seeding, T0 wells were also prepared. The following day, R1881 at a final concentration of 0.1 nM and compounds at various concentrations were added. The plate was placed back into the incubator and cultured for an additional 7 days. At the time of compound addition, the T0 plate was measured using the CellTiter-Glo (CTG) kit (Promega, Cat. No. G7572) and recorded as RLU0. Following incubation, 75 µl of pre-thawed and room temperature-equilibrated CellTiter-Glo solution was added to each well. […] The results were processed according to Equation (2). […] Growth% = (RLUcompound−RLU0)/(RLUcontrol−RLU0) × 100% [formula]

[2] = tested on: Human CD34+ Hematopoietic stem cells; assay: Human CD34+ hematopoietic stem cell proliferation inhibition experiment; format: cell-based; conditions: 168 h, inhibitory activity against the proliferation of CD34+ hematopoietic stem cells, 7 days
Experimental: Human CD34+ Hematopoietic stem cells (TPCS, Cat.hmPB34-P-2CW) are CD34-positive stem cells obtained from human PBMCs through immunomagnetic bead sorting. The culture conditions are as follows: DPBS (Gibco, Cat.14190-144) +StemSpan SFEM II ([…], Cat.9655) +1X StemSpan CD34+ Expansion Supplement ([…], Cat.2691). First, 40 nL of DMSO, the positive reference compound Talazoparib, or the test compounds were respectively added to a 384-well plate (Corning, Cat. 3764). Then, a cell suspension was added at 400 cells per well in 40 µL of medium, resulting in final concentrations of 0.1% DMSO, 3 µM Talazoparib, or various concentrations of the compounds in each well. The plate was centrifuged at room temperature at 1000 rpm for 1 minute, followed by incubation for 7 days in a 37°C, 5% CO2 incubator. Following incubation, 20 µL of CellTiter-Glo Reagent (Promega, Cat. G7573) was directly added to each well, and the plate was centrifuged at room temperature at 1000 rpm for 1 minute, followed by incubation for 20 minutes in the dark. Following incubation, the chemiluminescent signal (CFU) was read and recorded using an Envision multimode microplate reader (PerkinElmer, Cat. 2104). The cell proliferation inhibition rate at various compound concentrations was calculated according to Equation (3), where CFUhigh control represents the average signal value of the DMSO group, CFUlow control represents the average signal value of the Talazoparib group, and CFUcompound represents the average signal value of the compound-treated group. The processed data obtained from Equation (3) were analysed using XLfit or GraphPad Prism software, and a four-parameter curve fitting model was applied to calculate the compound concentration corresponding to a 50% inhibition rate, i.e., the IC50 value. Inhibition% = (CFUhigh control−CFUcompound)/(CFUhigh control−CFUlow control) × 100% [formula]

[3] = molecular target: T1, AR protein (Homo sapiens, UniProt P10275); assay: Detection of AR degradation in VCaP cells (automated western blot); format: cell-based; conditions: degradation of AR protein in VCaP cells, 24 hours incubation
T1 construct: VCap is a human prostate cancer cell line purchased from ATCC; host or cells: VCaP human prostate cancer cells
T1 sequence (P10275 1-920): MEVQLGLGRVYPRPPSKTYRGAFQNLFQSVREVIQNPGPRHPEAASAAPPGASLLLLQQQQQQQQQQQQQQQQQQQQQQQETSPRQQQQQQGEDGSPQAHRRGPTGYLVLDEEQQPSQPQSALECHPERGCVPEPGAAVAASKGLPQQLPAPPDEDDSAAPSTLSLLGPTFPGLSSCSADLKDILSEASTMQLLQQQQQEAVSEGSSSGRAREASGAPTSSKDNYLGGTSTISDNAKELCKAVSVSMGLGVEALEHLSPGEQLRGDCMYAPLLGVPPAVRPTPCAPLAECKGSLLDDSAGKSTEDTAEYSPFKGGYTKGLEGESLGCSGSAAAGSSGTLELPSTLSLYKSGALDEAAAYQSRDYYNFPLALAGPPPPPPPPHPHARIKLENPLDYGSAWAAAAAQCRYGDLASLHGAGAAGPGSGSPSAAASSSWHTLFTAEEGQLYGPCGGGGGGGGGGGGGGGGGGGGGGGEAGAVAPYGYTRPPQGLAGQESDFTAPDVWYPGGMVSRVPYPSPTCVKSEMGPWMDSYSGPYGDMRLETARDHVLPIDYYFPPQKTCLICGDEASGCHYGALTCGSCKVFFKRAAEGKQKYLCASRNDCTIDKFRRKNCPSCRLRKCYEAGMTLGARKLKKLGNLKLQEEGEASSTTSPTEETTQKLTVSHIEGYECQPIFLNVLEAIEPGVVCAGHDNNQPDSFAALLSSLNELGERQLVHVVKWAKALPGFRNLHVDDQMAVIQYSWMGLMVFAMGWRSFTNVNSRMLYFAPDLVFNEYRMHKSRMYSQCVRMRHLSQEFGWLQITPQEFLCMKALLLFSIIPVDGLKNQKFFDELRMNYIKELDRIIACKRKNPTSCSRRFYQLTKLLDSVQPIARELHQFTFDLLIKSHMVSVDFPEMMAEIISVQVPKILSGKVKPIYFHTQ
How it was run: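 VCaP cells (5 × 10^5/well) were treated with compounds at various concentrations for 24 h at 37°C. Lysate AR level was quantified by automated capillary western blot, normalised to β-actin and expressed relative to solvent control. DC50 came from four-parameter nonlinear regression; degradation rate = 100 − AR%.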

[4] = molecular target: T2, hERG potassium channel (Homo sapiens, UniProt Q12809); assay: hERG potassium ion channel test (manual patch-clamp, CHO cells); format: cell-based; conditions: chinese hamster; inhibitory activity against hERG potassium channel current, CHO cells, whole cell patch-clamp; read-out: IC50
T2 construct: expressed in transfected cells; host or cells: CHO cells stably expressing hERG
T2 sequence (Q12809 whole entry): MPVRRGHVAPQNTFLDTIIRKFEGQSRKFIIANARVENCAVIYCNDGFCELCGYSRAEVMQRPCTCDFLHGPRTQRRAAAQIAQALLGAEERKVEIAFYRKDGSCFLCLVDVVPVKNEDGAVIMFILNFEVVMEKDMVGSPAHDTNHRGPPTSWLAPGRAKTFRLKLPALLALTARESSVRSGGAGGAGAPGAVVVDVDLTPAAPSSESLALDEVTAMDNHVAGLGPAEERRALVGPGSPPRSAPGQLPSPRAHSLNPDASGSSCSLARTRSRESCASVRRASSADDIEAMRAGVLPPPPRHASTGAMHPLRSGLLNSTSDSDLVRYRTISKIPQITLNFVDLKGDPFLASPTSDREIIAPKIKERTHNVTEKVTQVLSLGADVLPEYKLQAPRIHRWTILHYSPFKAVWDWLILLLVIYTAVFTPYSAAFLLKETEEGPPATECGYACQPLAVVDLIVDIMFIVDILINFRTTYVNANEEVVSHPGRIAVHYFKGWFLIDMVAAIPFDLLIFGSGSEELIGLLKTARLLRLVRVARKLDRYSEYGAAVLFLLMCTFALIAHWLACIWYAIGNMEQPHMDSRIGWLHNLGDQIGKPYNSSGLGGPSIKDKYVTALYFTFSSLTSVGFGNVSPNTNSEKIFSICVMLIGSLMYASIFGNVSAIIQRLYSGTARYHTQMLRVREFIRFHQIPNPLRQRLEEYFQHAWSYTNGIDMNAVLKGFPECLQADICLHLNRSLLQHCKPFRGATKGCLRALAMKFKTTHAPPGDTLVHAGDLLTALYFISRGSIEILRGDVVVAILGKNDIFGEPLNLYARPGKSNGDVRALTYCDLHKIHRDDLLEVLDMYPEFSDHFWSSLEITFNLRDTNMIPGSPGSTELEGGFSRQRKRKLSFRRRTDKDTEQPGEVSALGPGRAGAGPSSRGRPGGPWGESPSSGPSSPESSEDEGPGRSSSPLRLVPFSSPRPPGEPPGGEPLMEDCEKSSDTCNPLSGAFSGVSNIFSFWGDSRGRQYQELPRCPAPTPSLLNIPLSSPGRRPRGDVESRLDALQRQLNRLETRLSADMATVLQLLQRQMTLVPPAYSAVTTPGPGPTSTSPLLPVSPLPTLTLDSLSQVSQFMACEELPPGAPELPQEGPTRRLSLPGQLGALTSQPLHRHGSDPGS
From the text: Experimental platform: Electrophysiological manual patch-clamp system
Cell line: Chinese hamster ovary (CHO) cell lines stably expressing hERG potassium ion channel
Experimental method: In Chinese Hamster Ovary (CHO) cells stably expressing hERG potassium channel, whole cell patch-clamp technique was used to record hERG potassium channel current at room temperature. The glass microelectrode was made of a glass electrode blank (BF150-86-10, Sutter) by a puller. The tip resistance after filling the liquid in the electrode was about 2-5 MΩ. The glass microelectrode can be connected to the patch-clamp amplifier by inserting the glass microelectrode into an amplifier probe. The clamping voltage and data recording were controlled and recorded by the pClamp 10 software through a computer. The sampling frequency was 10 kHz, and the filtering frequency was 2 kHz. After the whole cell records were obtained, the cells were clamped at -80 mV, and the step voltage that induced the hERG potassium current (I hERG) was depolarised from -80 mV to +20 mV for 2 s, then repolarised to -50 mV, and returned to -80 mV after 1 s. This voltage stimulation was given every 10 s, and the administration process was started after the hERG potassium current was confirmed to be stable (at least 1 minute). The compound was administered for at least 1 minute at each test concentration, and at least 2 cells (n ≥ 2) were tested at each concentration.
Data processing: Data analysis processing was carried out by using pClamp 10, GraphPad Prism 5 and Excel software.
Compound IC50 was calculated using GraphPad Prism 5 software by fitting according to the following equation: Y = Bottom + (Top−Bottom)/(1+10^(∧)((LogIC50−X)*HillSlope)) [formula] where X represents the Log value of the tested concentration of the test sample, Y represents the inhibition percentage at the corresponding concentration, and Bottom and Top represent the minimum and maximum inhibition percentage, respectively.

[5] = Pharmacokinetic test in mice; format: in vivo, ICR mice; conditions: i.g. (5 mg/kg); for AUC(0-t): mouse, plasma, po
Experimental: (§1) Experimental objective: In this experiment, a single dose of the test compound was administered to ICR mice via intravenous administration and intragastric gavage, and the concentration of the test compound in plasma of the mice was measured to evaluate the pharmacokinetic profile of the test compound in the mice.
Experimental animals: Male ICR mice, 6 mice/compound, purchased from Chengdu Ddossy Experimental Animals Co., Ltd.
(§2) Experimental method: On the day of the experiment, 6 SD mice were randomly grouped according to their body weights. The animals were fasted with water available for 12 to 14 h one day before the administration, and were fed 4 h after the administration. Table 6 Administration information of pharmacokinetic test in mice
Sampling: Before and after the administration, 0.15 mL of blood was taken from the orbits under isoflurane anaesthesia, and placed in an EDTAK2 centrifuge tube. Centrifugation was carried out at 5000 rpm at 4°C for 10 min, and the plasma was collected.
The plasma collection time points for PO groups were 0, 5 min, 15 min, 30 min, 1 h, 2 h, 4 h, 7 h, 24 h, and 48 h.
The plasma collection time points for IV groups were 0, 5 min, 15 min, 30 min, 1 h, 2 h, 4 h, 7 h, 24 h, and 48 h.
Before analysis and detection, all samples were stored at -60°C. The samples were analysed quantitatively by LC-MS/MS. Table 7 Pharmacokinetic parameters of compounds of the present invention in plasma of mice

[6] = Pharmacokinetic test in rats; format: in vivo, SD rats; conditions: i.g. (5 mg/kg), vehicle 5% DMSO+5% Solutol+90% (20% SBE-β-CD); for AUC(0-t): rat, plasma, po
Experimental: as §1, with “SD rats” for “ICR mice”, “rats” for “mice”, “rats.” for “mice.”
Experimental animals: Male SD rats, 200-220 g, 6 rats/compound, purchased from Chengdu Ddossy Experimental Animals Co., Ltd.
as §2, with “SD rats” for “SD mice”, “Table 3” for “Table 6”, “in rats” for “in mice”
Sampling: Before and after the administration, 0.1 mL of blood was taken from the orbits under isoflurane anaesthesia, and placed in an EDTAK2 centrifuge tube. Centrifugation was carried out at 5000 rpm at 4°C for 10 min, and the plasma was collected.
The plasma collection time points for IV&PO groups were 0, 5 min, 15 min, 30 min, 1 h, 2 h, 4 h, 7 h, 24 h, and 48 h.
Before analysis and detection, all samples were stored at -60°C. The samples were analysed quantitatively by LC-MS/MS. Table 4 Pharmacokinetic parameters of compounds of the present invention in plasma of rats

[7] = Vehicle 3: 5% DMSO+5% Solutol+90% (20% SBE-β-CD)

With `COc1cc(O[C@H]2C(C)(C)[C@H](NC(=O)c3ccc(N4CCC(CN5CCN6c7cc(F)c(C(=O)N[C@H]8CCC(=O)NC8=O)cc7CC[C@@H]6C5)CC4)cc3)C2(C)C)ccc1C#N` [Compound 11] the GI50 [1] was < 300 nM, the IC50 [2] was > 10000 nM and the DC50 ([3]; read-out: DC50) was < 100 nM. For the same compound, the IC50 [4] was > 40000 nM.

With `COc1cc(O[C@H]2C(C)(C)[C@H](NC(=O)c3ccc(N4CCC(CN5CCN(c6ccc(C(=O)N[C@H]7CCC(=O)NC7=O)c(F)c6)CC5)CC4)cc3)C2(C)C)ccc1C#N` [Control compound, reference compound] the GI50 [1] was > 2000 nM, the F ([5]; Vehicle 1: 5% DMSO+5% Solutol+30% PEG400+60% (20% SBE-CD)) was 63.4±3.3% and the AUC(0-t) ([5]; male, ICR, Vehicle 1: 5% DMSO+5% Solutol+30% PEG400+60% (20% SBE-CD)) was 20700 ± 1080 ng·h/mL. For the same compound, the F [6] was 26.9±3.2% and the AUC(0-t) ([6]; male, SD) was 2870 ± 338 ng·h/mL.

With `COc1cc(O[C@H]2C(C)(C)[C@H](NC(=O)c3ccc(N4CCC5(CC4)CC(CN4CCN6c7cc(F)c(C(=O)N[C@H]8CCC(=O)NC8=O)cc7CC[C@H]6C4)C5)cc3)C2(C)C)ccc1C#N` [Trifluoroacetate of compound 7] the IC50 [2] was > 10000 nM and the DC50 ([3]; read-out: DC50) was < 100 nM.

In the case of `COc1cc(O[C@H]2C(C)(C)[C@H](NC(=O)c3ccc(N4CCC(CN5CCN6c7cc(F)c(C8CCC(=O)NC8=O)cc7CC[C@H]6C5)CC4)nn3)C2(C)C)ccc1C#N` (some centres unmarked) [Trifluoroacetate of compound 61], the GI50 [1] is reported as < 300 nM, the F [5, 7] is reported as 98.8±12% and the AUC(0-t) [5, 7] is reported as 28500 ± 3460 ng·h/mL. The F [6] was 43.5+14%, the AUC(0-t) [6] was 5460 ng·h/mL and the DC50 ([3]; read-out: DC50) was < 100 nM.

For `COc1cc(O[C@H]2C(C)(C)[C@H](NC(=O)c3ccc(N4CCC(CN5CCN6c7cc(F)c(C8CCC(=O)NC8=O)cc7CC[C@@H]6C5)CC4)nn3)C2(C)C)ccc1C#N` (some centres unmarked) [Trifluoroacetate of compound 60], the GI50 [1] was < 300 nM, the F [5, 7] was 84.2±8.4% and the AUC(0-t) [5, 7] was 41600 ± 4140 ng·h/mL. The F [6] was 57.5±3.0%, the AUC(0-t) [6] was 6600 ± 349 ng·h/mL and the DC50 [3] was < 100 nM.
